According to patent publication US20080200337A1, “Mixed herbicide compositions for paddy field” (Bayer CropScience, priority 2007, published 2008):

Tests used:
Type in all cases: in vivo
transplanted rice [1] = assay: Phytotoxicity, flooded paddy field, treatment at 1 leaf-stage (Test Example 1); details: treatment at 1 leaf-stage, after 4 weeks
Procedure: (§1) Carrier: 5 parts by weight of acetone
(§2) Surfactant: one part by weight of benzyloxy polyglycol ether.
(§3) Above described carrier and surfactant are mixed with one part by weight of the active compound ((a) ingredient and (b) ingredient) and the resulting preparation is then diluted with water to obtain given amount of the test drug (the formulation).
(§4) In a greenhouse, seeds or tubers of Echinochloa, Scirpus juncoides Roxburgh, Monochoria vaginalis Presl, annual broad-leaved weeds (Lindernia procumbens Philcox, Lindernia dubia L. Penn., Rotala indica Koehne, Elatine triandra Schk, Ammannia multiflora Roxb.), Cyperus serotinus Rottboel and Sagittaria pygmaea Miq. were inoculated in a 500 cm^2 pot filled with paddy field soil. After 2 leaf-stage of rice were transplanted, water was poured to a depth of about 3 cm. At 1.0 leaf-stage of Echinochloa oryzicola Vasing, a prescribed, diluted solution of the formulation of each active compound and each herbicidal compound in the table was separately or simultaneously applied to the surface of water. After the treatment, the water depth of 3 cm was maintained, and herbicidal effect was examined after 4 weeks. In the assessment of the herbicidal effect and the phytotoxicity, 100% refers to complete death and 0% refers to no effect or no phytotoxicity.

[2] = tested on: Monochoria vaginalis Presl; assay: Weed control, flooded paddy field, treatment at 3 leaf-stage (Test Example 2); details: after 4 weeks
Procedure: as §1, §2, §3
as §4, with “Echinochloa, Cyperus difformis L.,” for “Echinochloa,”, “3.0” for “1.0”, “Echinochloa,” for “Echinochloa oryzicola Vasing,”

[3] = tested on: annual broad-leaved weeds; assay: as above; details: after 4 weeks
Procedure: as §1, §2, §3
as §4, with “Echinochloa, Cyperus difformis L.,” for “Echinochloa,”, “3.0” for “1.0”, “Echinochloa,” for “Echinochloa oryzicola Vasing,”

Sagittaria pygmaea Miq. [4] = assay: as above; details: after 4 weeks
Procedure: as §1, §2, §3
as §4, with “Echinochloa, Cyperus difformis L.,” for “Echinochloa,”, “3.0” for “1.0”, “Echinochloa,” for “Echinochloa oryzicola Vasing,”

[5] = tested on: Cyperus serotinus Rottboel; assay: as above; details: after 4 weeks
Procedure: as §1, §2, §3
as §4, with “Echinochloa, Cyperus difformis L.,” for “Echinochloa,”, “3.0” for “1.0”, “Echinochloa,” for “Echinochloa oryzicola Vasing,”

[6] = tested on: Scirpus juncoides Roxburgh; assay: as above; details: after 4 weeks
Procedure: as §1, §2, §3
as §4, with “Echinochloa, Cyperus difformis L.,” for “Echinochloa,”, “3.0” for “1.0”, “Echinochloa,” for “Echinochloa oryzicola Vasing,”

Echinochloa [7] = assay: as above; details: after 4 weeks
Procedure: as §1, §2, §3
as §4, with “Echinochloa, Cyperus difformis L.,” for “Echinochloa,”, “3.0” for “1.0”, “Echinochloa,” for “Echinochloa oryzicola Vasing,”

[8] = tested on: Monochoria vaginalis Presl; assay: Weed control, flooded paddy field, treatment at 1 leaf-stage (Test Example 1); details: after 4 weeks
Procedure: as §1, §2, §3, §4

[9] = tested on: annual broad-leaved weeds; assay: as above; details: after 4 weeks
Procedure: as §1, §2, §3, §4

Sagittaria pygmaea Miq. [10] = assay: as above; details: after 4 weeks
Procedure: as §1, §2, §3, §4

[11] = tested on: Cyperus serotinus Rottboel; assay: as above; details: after 4 weeks
Procedure: as §1, §2, §3, §4

[12] = tested on: Scirpus juncoides Roxburgh; assay: as above; details: after 4 weeks
Procedure: as §1, §2, §3, §4

Echinochloa [13] = assay: as above; details: after 4 weeks
Procedure: as §1, §2, §3, §4

transplanted rice [14] = assay: Phytotoxicity, flooded paddy field, treatment at 3 leaf-stage (Test Example 2); details: treatment at 3 leaf-stage, after 4 weeks
Procedure: as §1, §2, §3
as §4, with “Echinochloa, Cyperus difformis L.,” for “Echinochloa,”, “3.0” for “1.0”, “Echinochloa,” for “Echinochloa oryzicola Vasing,”

[15] = tested on: Monochoria vaginalis Presl; assay: Weed control by spray treatment at 1.5 to 3.0 leaf-stage (Test Example 3); details: spray at 1.5 to 3.0 leaf-stage, 4 weeks later
Procedure: as §1, §2, §3
(§5) In a greenhouse, seeds of rice (var.: Nipponbare and RD23) and weeds (Echinochloa oryzicola Vasing, Echinochloa cruss-galli, Leptochloa chinensis, Cyperus difformis L., Cyperus iria L., annual broad-leaved weeds (Monochoria vaginalis Presl, Lindernia procumbens Philcox, Lindernia dubia L. Penn., Rotala indica Koehne, Elatine triandra Schk, Ammannia multiflora Roxb. and the like)) were sown in a 500 cm^2 pot filled with paddy field soil and covered with soil. Water was added to the pot (a depth of 0 cm) to be a wet condition, and each test plant was grown in the greenhouse to 1.5 to 3.0 leaf-stage, after then a prescribed, diluted solution of the formulation of each active compound and each herbicidal compound in the table were separately or simultaneously sprayed over the pots with plants. At 3 days after the treatment, the water depth of 3 cm was maintained, and 4 weeks later, herbicidal effect was then examined. In the assessment of the herbicidal effect and the phytotoxicity, 100% refers to complete death and 0% refers to no effect or no phytotoxicity.

Cyperus iria L. = assay: as above; details: spray at 1.5 to 3.0 leaf-stage, 4 weeks later
Procedure: as §1, §2, §3, §5

Leptochloa chinensis = assay: as above; details: spray at 1.5 to 3.0 leaf-stage, 4 weeks later
Procedure: as §1, §2, §3, §5

[16] = tested on: Echinochloa oryzicola Vasing; assay: as above; details: spray at 1.5 to 3.0 leaf-stage, 4 weeks later
Procedure: as §1, §2, §3, §5

[17] = tested on: annual broad-leaved weeds; assay: as above; details: spray at 1.5 to 3.0 leaf-stage, 4 weeks later
Procedure: as §1, §2, §3, §5

Echinochloa cruss-galli = assay: as above; details: spray at 1.5 to 3.0 leaf-stage, 4 weeks later
Procedure: as §1, §2, §3, §5

Cyperus difformis L. = assay: as above; details: spray at 1.5 to 3.0 leaf-stage, 4 weeks later
Procedure: as §1, §2, §3, §5

[18] = tested on: submerged direct sown paddy (Nipponbare); assay: Phytotoxicity, spray treatment at 1.5 to 3.0 leaf-stage (Test Example 3); details: spray at 1.5 to 3.0 leaf-stage, 4 weeks later
Procedure: as §1, §2, §3, §5

[19] = tested on: submerged direct sown paddy (RD-23); assay: as above; details: spray at 1.5 to 3.0 leaf-stage, 4 weeks later, RD-23
Procedure: as §1, §2, §3, §5

In the case of COc1nc(OC)nc(C(=O)c2cccc(F)c2N(C)S(=O)(=O)C(F)F)n1 [(a-1)], the “Phytotoxicity (%) ORYSP” value (transplanted rice [1]; 30 g ai/ha) is reported as 0%, the “Phytotoxicity (%) ORYSP” value (transplanted rice [1]; 50 g ai/ha) is reported as 0% and the “Herbicidal effect (%) MOOVP” value ([2]; 30 g ai/ha) is reported as 20%. For the same compound, the “Herbicidal effect (%) MOOVP” value ([2]; 50 g ai/ha) was 45%, the “Herbicidal effect (%) BBBBB” value ([3]; 30 g ai/ha) was 21% and the “Herbicidal effect (%) BBBBB” value ([3]; 50 g ai/ha) was 30%. The “Herbicidal effect (%) SAGPY” value (Sagittaria pygmaea Miq. [4]; 30 g ai/ha) was 70%, the “Herbicidal effect (%) SAGPY” value (Sagittaria pygmaea Miq. [4]; 50 g ai/ha) was 73% and the “Herbicidal effect (%) CYPSEE” value ([5]; 30 g ai/ha) was 90%. For the same compound, the “Herbicidal effect (%) CYPSEE” value ([5]; 50 g ai/ha) was 90%, the “Herbicidal effect (%) SCPSS” value ([6]; 30 g ai/ha) was 80% and the “Herbicidal effect (%) SCPSS” value ([6]; 50 g ai/ha) was 83%. The “Herbicidal effect (%) ECHSS” value (Echinochloa [7]; 30 g ai/ha) was 90%, the “Herbicidal effect (%) ECHSS” value (Echinochloa [7]; 50 g ai/ha) was 90% and the “Herbicidal effect (%) MOOVP” value ([8]; 30 g ai/ha) was 25%. For the same compound, the “Herbicidal effect (%) MOOVP” value ([8]; 50 g ai/ha) was 47%, the “Herbicidal effect (%) BBBBB” value ([9]; 30 g ai/ha) was 25% and the “Herbicidal effect (%) BBBBB” value ([9]; 50 g ai/ha) was 45%. The “Herbicidal effect (%) SAGPY” value (Sagittaria pygmaea Miq. [10]; 30 g ai/ha) was 70%, the “Herbicidal effect (%) SAGPY” value (Sagittaria pygmaea Miq. [10]; 50 g ai/ha) was 90% and the “Herbicidal effect (%) CYPSEE” value ([11]; 30 g ai/ha) was 90%. For the same compound, the “Herbicidal effect (%) CYPSEE” value ([11]; 50 g ai/ha) was 93%, the “Herbicidal effect (%) SCPSS” value ([12]; 30 g ai/ha) was 85% and the “Herbicidal effect (%) SCPSS” value ([12]; 50 g ai/ha) was 87%. For the same compound, the “Herbicidal effect (%) ECHSS” value (Echinochloa [13]; 30 g ai/ha) was 93%, the “Herbicidal effect (%) ECHSS” value (Echinochloa [13]; 50 g ai/ha) was 95% and the “Phytotoxicity (%) ORYSP” value (transplanted rice [14]; 30 g ai/ha) was 0%. The “Phytotoxicity (%) ORYSP” value (transplanted rice [14]; 50 g ai/ha) was 0%, the “Herbicidal effect (%) MOOVP” value ([15]; 30 g ai/ha) was 85% and the “Herbicidal effect (%) MOOVP” value ([15]; 50 g ai/ha) was 85%. The “Herbicidal effect (%) CYPIR” value (Cyperus iria L.; 30 g ai/ha) was 100%, the “Herbicidal effect (%) CYPIR” value (Cyperus iria L.; 50 g ai/ha) was 100% and the “Herbicidal effect (%) LEFCH” value (Leptochloa chinensis; 30 g ai/ha) was 75%. For the same compound, the “Herbicidal effect (%) LEFCH” value (Leptochloa chinensis; 50 g ai/ha) was 90%, the “Herbicidal effect (%) ECHOR” value ([16]; 30 g ai/ha) was 100% and the “Herbicidal effect (%) ECHOR” value ([16]; 50 g ai/ha) was 100%. For the same compound, the “Herbicidal effect (%) BBBBB” value ([17]; 30 g ai/ha) was 70%, the “Herbicidal effect (%) BBBBB” value ([17]; 50 g ai/ha) was 70% and the “Herbicidal effect (%) ECHCG” value (Echinochloa cruss-galli; 30 g ai/ha) was 100%. The “Herbicidal effect (%) ECHCG” value (Echinochloa cruss-galli; 50 g ai/ha) was 100%, the “Herbicidal effect (%) CYPDI” value (Cyperus difformis L.; 30 g ai/ha) was 100% and the “Herbicidal effect (%) CYPDI” value (Cyperus difformis L.; 50 g ai/ha) was 100%. For the same compound, the “Phytotoxicity (%) ORYSW*^1” value ([18]; 30 g ai/ha) was 5%, the “Phytotoxicity (%) ORYSW*^1” value ([18]; 50 g ai/ha) was 10% and the “Phytotoxicity (%) ORYSW*^2” value ([19]; 30 g ai/ha) was 5%. For the same compound, the “Phytotoxicity (%) ORYSW*^2” value ([19]; 50 g ai/ha) was 10%.
